This note sets out measurements from PMC4742142, “Identification of novel, in vivo active Chk1 inhibitors utilizing structure guided drug design” (Oncotarget, 2015).

One data set deals with CDK1 (Homo sapiens, UniProt P06493). Put plainly: In vitro kinase assay, CDK1. In kind it is biochemical. The procedure:
Kinase assays were performed as previously described.

The test system of a further data set is pH2AX (S139). Description: pH2AX ELISA in HT29 cells with gemcitabine. Format: cell-based. Conditions: Homo sapiens, HT-29, 50 nM gemcitabine, 24 hours, read-out: Gem pH2AX (S139) EC50. The method, then:
1 × 10^4 HT29 cells were seeded per well of a 96 well plate and treated with a combination of 50 nM gemcitabine plus increasing concentrations of V158411 for 24 hours. Following fixation with methanol, pH2AX was detected with a mouse monoclonal antibody (JBW301, Millipore) and a europium-labeled anti-mouse secondary antibody.
On the technique in general: An ELISA detects its analyte on a solid surface through an enzyme-linked reagent.

The test system of the next data set is HT29 cells. Description: Checkpoint abrogation assay (gemcitabine, nocodazole, pHH3 (S10)). Format: cell-based, human. The method, then: The ability of V158411 to abrogate gemcitabine induced S-phase arrest was further characterized using a checkpoint abrogation assay. Cells were pre-treated with gemcitabine for 16 hours followed by increasing concentrations of V158411 in the presence of nocodazole, an inhibitor of microtubule polymerization, for a further 24 hours. Mitotic cells were then scored for pHH3 (S10) expression. p53 defective HT29 cells exposed to gemcitabine, which induces arrest in S-phase, were negative for pHH3 (S10) staining. V158411 treatment abrogated the gemcitabine induced S-phase arrest allowing cells to progress through into mitosis where they were trapped by nocodazole. These cells stained positive for pHH3 and are indicative of checkpoint abrogation.

In data set [1] the target is T1, Chk1 (Homo sapiens, UniProt O14757).
T1 sequence (O14757 1-476): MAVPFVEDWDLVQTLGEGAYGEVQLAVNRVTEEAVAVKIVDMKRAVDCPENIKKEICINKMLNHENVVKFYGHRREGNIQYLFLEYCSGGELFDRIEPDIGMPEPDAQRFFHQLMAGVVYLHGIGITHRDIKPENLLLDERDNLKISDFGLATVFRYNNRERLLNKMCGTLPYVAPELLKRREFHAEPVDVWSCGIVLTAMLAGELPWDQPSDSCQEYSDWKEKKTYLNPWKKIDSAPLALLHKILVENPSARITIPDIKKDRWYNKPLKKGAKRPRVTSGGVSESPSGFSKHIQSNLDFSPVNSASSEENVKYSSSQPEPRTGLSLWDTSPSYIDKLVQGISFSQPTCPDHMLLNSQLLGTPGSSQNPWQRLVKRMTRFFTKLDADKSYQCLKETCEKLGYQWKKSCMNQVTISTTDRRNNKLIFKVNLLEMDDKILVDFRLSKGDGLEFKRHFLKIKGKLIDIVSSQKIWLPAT
Put plainly: Western blotting of pChk1 (S296) in HT29 cells (gemcitabine or camptothecin; washout). In kind it is cell-based. Conditions: 500 nM for 1 hour then drug free media. The method, then: Figure 3 Effect of V158411 on etoposide, gemcitabine and camptothecin induced DNA damage checkpoint and cell cycle proteins A. HT29 cells were exposed to increasing concentrations of V158411 for 1 hour followed by 25 μM etoposide for a further 5 hours. Auto-phosphorylation of Chk1 and Chk2 was determined by immunoblotting. B. HT29 cells were treated with gemcitabine (25 nM) or camptothecin (50 nM) for 16 hours followed by increasing doses of V158411 for a further 24 hours. C. HT29 cells were treated with 500 nM V158411 for 1 hour, media removed and replaced with drug free. Cells were harvested at the indicated time points post the removal of V158411. D. HT29 cells were treated with 0 or 100 nM camptothecin for 16 hours followed by V158411 for 2 - 24 hours. After the indicated time, media was removed and replaced with drug free media. All cells were harvested 24 hours after the initial addition of V158411. Protein expression was characterized by immunoblotting as described in materials and methods.
Anti-pHistone H3 (S10) was obtained from Millipore; pCdc2 (Y15), pCdc25C (S216), Chk1, pChk1 (S317), pChk2 (S516), Cyclin B1, pH2AX (S139), GAPDH and Actin from Cell Signaling Technologies and pChk1 (S296) from Abcam. […] Protein concentration was determined using BCA kit (Pierce). […]
On the technique in general: Immunoblotting shows a protein as a band on a membrane.

A further data set relates to Colo205 xenografts. Put plainly: Colo205 xenograft antitumor efficacy. In kind it is in vivo. The text has this: Xenograft studies were undertaken by Charles River Laboratories Discovery Services, North Carolina. On the day of tumor cell implant, Colo205 cells were harvested and resuspended in 50% Matrigel matrix (BD Biosciences) in PBS at a concentration of 5 × 10^6 cells/mL. Each test mouse received 1 × 10^6 Colo205 cells implanted subcutaneously (SC) in the flank of female athymic nude mice (HRLN or NCr nu/nu), and tumor growth was monitored as the average size approached 100-150 mm^3. The SW620 tumor line was maintained by serial SC transplantation in female athymic nude mice (HRLN nu/nu). Tumor fragments, approximately 1 mm^3 each, were implanted SC into the right flank of each animal and allowed to grow towards a target size of 100-150 mm^3. On day 1 of the study, tumors were randomized into treatment groups before compound administration.
V158411 was formulated in D5W and administered via IV injection into the tail vein. Cyclic treatment regimens were followed and treatment ranged from 2-3 cycles.
Tumor size was measured with electronic calipers and tumor volume calculated according to the formula ((width × width) × length) /2.
The study endpoint was defined as a tumor volume of 750 mm^3 for Colo205 or 1500 mm^3 for SW620, or day 60, whichever came first. Each animal was euthanized when its' tumor reached this endpoint. The time to endpoint (TTE) for each mouse was calculated from the equation TTE = (log10(endpoint volume)-b)/m where b is the intercept and m the slope of the line obtained by linear regression of a log-transformed tumor growth data set.

For data set [2], the target named is T1, Chk1. Put plainly: Wide panel binding assay (386 kinases). Conditions: Chk1, 50 nM. The method, then:
Selectivity against the cell cycle kinase CDK1 is considered critical for the pharmacological activity of Chk1 inhibitors as inhibiting it would prevent the G2 checkpoint abrogation and entry into mitosis; critical for the potentiation of cytotoxic DNA damage. Against a panel of 386 kinases in a wide panel binding assay, V158411 inhibited the activity of one kinase (Chk1) in the range 99-100%, three kinases 90-99% and 19 kinases 65-90% at 50 nM (Supplementary Table 1).

Where [3] appears, read: Colo205, 75 mg/kg irinotecan IP followed by 30 mg/kg V158411 IV.
Where [4] appears, read: Colo205, 75 mg/kg irinotecan IP followed by 60 mg/kg V158411 IV.

Where “and” joins values, the source holds several entries; their conditions need not be identical. Equal entries are not always repeated. Entries after “also recorded” stand apart in the source; their conditions may differ.

Chain of CDK1 (P06493 whole entry): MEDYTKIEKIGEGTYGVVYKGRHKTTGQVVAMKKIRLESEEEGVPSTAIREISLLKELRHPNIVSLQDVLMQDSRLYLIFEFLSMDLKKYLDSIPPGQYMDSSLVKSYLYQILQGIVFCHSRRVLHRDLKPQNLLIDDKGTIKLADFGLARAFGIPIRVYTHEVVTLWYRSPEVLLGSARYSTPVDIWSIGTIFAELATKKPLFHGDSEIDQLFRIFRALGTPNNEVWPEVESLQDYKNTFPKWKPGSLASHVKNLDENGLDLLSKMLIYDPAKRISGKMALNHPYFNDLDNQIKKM
Chain of CDK1 (P14635 whole entry partner): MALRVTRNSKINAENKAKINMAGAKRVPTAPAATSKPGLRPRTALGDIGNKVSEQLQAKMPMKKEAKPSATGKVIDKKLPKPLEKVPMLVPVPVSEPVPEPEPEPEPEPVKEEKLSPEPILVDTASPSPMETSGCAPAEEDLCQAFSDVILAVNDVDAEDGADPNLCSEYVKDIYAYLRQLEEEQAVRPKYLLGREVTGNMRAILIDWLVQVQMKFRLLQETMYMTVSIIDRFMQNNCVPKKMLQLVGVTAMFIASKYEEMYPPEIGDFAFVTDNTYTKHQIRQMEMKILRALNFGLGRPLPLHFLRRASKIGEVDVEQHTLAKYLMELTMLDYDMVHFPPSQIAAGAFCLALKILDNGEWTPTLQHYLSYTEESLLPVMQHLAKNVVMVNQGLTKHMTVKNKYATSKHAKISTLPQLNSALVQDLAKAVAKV

On to `CN(C)CC(C)(C)COc1ccc2[nH]c(-c3cc(NC(=O)c4cnn(Cc5ccccc5)c4)c[nH]c3=O)cc2c1` [V158411], for which the IC50 at CDK1 is > 50000 nM. For the same compound, at CDK1 (Chk1 versus CDK1), the “selectivity for CDK1” value is reported as “more than 10 000 fold”. The EC50 amounted to 51 nM in the data set on pH2AX (S139) and 79 nM with HT29 cells (Homo sapiens, HT-29, gemcitabine 16 hours then compound plus nocodazole 24 hours, read-out: Gem pHH3 (S10) MI EC50 (abrogation of gemcitabine induced S-phase arrest)). The “concentration of maximal abrogation of gemcitabine induced S-phase arrest” value with HT29 cells is “around 300 nM”. The “duration of Chk1 inhibition (pChk1 S296) after removal of compound from the culture media” value on Chk1 [1] is on record as “at least 24 hours”. Also, the “Median TTE” value in the data set with Colo205 xenografts (Colo205, 60 mg/kg IV V158411 monotherapy, untreated 19.8 days) is 22.3 days; with Colo205 xenografts (Colo205, 75 mg/kg irinotecan IP followed by 30 mg/kg V158411 IV 2 hours later, q7d 3 cycles), 45.4 days; in the data set on Colo205 xenografts (Colo205, 75 mg/kg irinotecan IP followed by 60 mg/kg V158411 IV 2 hours later, q7d 3 cycles, study end day 60), 60.0 days and 60 days. Moreover, the “single agent anti-tumor activity” value in the data set on Colo205 xenografts (Colo205, 60 mg/kg V158411 monotherapy) is “inactive; also recorded: no single agent activity”. Further, the figures for the “%TGD” value in the data set with Colo205 xenografts (setting [3]) and in the data set on Colo205 xenografts (setting [4]) were 129% and 203%, respectively. Besides, the T-C in the data set with Colo205 xenografts (setting [3]) is 25.6; in the data set on Colo205 xenografts (setting [4]), 40.2. Moreover, in the data set on Colo205 xenografts (Colo205, irinotecan plus V158411 combination therapy, day 4), the “mean body weight nadir” value is reported as −2.7%. Also, the “Percent inhibition at 50 nM” value at Chk1 [2] (0.05 µM) is given as 99-100%. The inhibition at 0.05 µM at Chk1 [2] (read-out: Percent inhibition at 50 nM) stood at 100%.

The term IC50 denotes the concentration that inhibits the measured activity by half. A word on the EC50: it is the midpoint of the concentration-response curve. The inhibition is the change of the read-out against control, counted positive when it falls.
